Assay results published in patent US20060148707A1, “Use of ligands to GABA beta receptors” (priority 1999, published 2006).

Key:
Type in all cases: in vivo, Wistar rats
BDNF mRNA = BDNF mRNA in rat cortex, hippocampus and spinal cord after i.p. treatment (RT-PCR, ratio to S12); settings: 3 and 10 mg/kg i.p., 6 and 24 hours after treatment
Protocol: (§1) Male adult Wistar rats (10-12 weeks) are killed by decapitation. The brains are removed, rapidly dissected with nuclease-free instruments on an ice-cold metal-plate, transferred to sterile cryotubes, and immediately shock-frozen by immersions in liquid nitrogen. Tissues are stored at −80° C. until further processing. Samples for the measurement of neurotrophin protein levels are prepared according to Lüesse et al., Exp. Brain Res. 1998: 119, 1-8. The homogenates are centrifuged at 12,500 g for 60 min, and the supernatants are used for NGF, BDNF and neurotrophin-3 (NT-3) quantification using specific ELISA assays.
(§2) Total cellular RNA is isolated according to the TRIZOL®-protocol (Gibco BRL, Eggenstein) as described by Lüesse et al. (see above).
(§3) Before being subjected to RT-PCR, the RNA extracts are supplemented with internal control RNA and optimized as described in detail by Heese K. et al., 1998, Neural Notes III, 21-23. Total RNA of each sample is first reverse-transcribed into cDNA which in turn is subjected to PCR amplification using primers specific for NGF and BDNF as described by Heese K et al., (see above).
(§4) For the quantification of neurotrophin transcripts, the ratios of densitometric scores for NGF or BDNF and S12 PCR products are calculated. Data are means±SEM of three independent experiments, each done in duplicate. N=4 to 6 for each group.

NGF mRNA = NGF mRNA in rat cortex, hippocampus and spinal cord after i.p. treatment (RT-PCR, ratio to S12); settings: 3 and 10 mg/kg i.p., 6 and 24 hours after treatment
Protocol: as §1, §2, §3, §4

NT-3-protein = experiment: NT-3 protein in rat cortex, hippocampus and spinal cord after i.p. treatment (immunoassay); settings: 4 mg/kg i.p.
Protocol: as §1
To measure the immunoreactive NGF into the cortex, hippocampus and spinal cord of rats, a two-site ELISA is used (Weskamnp, G. and Otten, U. 1987, J. Neurochem. 48, 1779-1786). Anti-β (2.5S, 7S) NGF and anti-β (2.5S, 7S) NGF-β-gal (clone 27/21) (Boehringer Mannheim) are applied, and the NGF content in the samples is determined by comparison with an NGF standard curve (absorbance measurement at 595 nm using an ELISA reader, Dynatech MR 700). For quantification of BDNF and NT-3 levels, specific immunoassay systems are used according to the manufacturer's (Promega) protocols but modified by Heese, K. and Otten, U., 1998, J. Neurochem. 70, 699-707. Statistical evaluation of results is performed by applying analysis of variance, and the statistical error is the SEM. […]

Question: Which results are given for `C[C@H](NC[C@H](O)CP(=O)(O)CC1CCCCC1)c1cccc(C(=O)O)c1` [compound A]?
Answer: increase of BDNF mRNA (BDNF mRNA): 2 to 3 fold; increase of NGF mRNA (NGF mRNA): 2.0 to 2.5 fold

Question: `NCC(CC(=O)O)c1ccc(Cl)cc1` (stereo not drawn) [compound C, β-(aminomethyl)-4-chlorobenze propanoic acid] was tested. Which “increase of NT-3-protein levels” value (NT-3-protein) did it give?
Answer: 3 fold
